# Test results as given in patent US20100022639A1, “Methods of Inducing Weight Loss” (The Johns Hopkins University School of Medicine Licensing …, priority 2000, published 2010).
# What was measured:
# [1] = tested on: neuropeptide Y (NPY) mRNA; assay: Northern blot of hypothalamic NPY mRNA; assay type: in vivo, BALB/c mice; conditions: 30 mg/kg C-75, 24 hours
# Source text: The control of body weight is integrated in the hypothalamus by a coordinated group of neuropeptides that monitor adiposity and feeding status and regulate feeding and energy utilization. A central regulator in this process is neuropeptide Y (NPY) (loftus, 1999, Sem. Cell. Dev. Biol., 10: 11). In the arcuate nucleus, the level of NPY increases in the fasted state (Schwartz, et al., 1998, Endocrinology, 139:2629), acting as a potent stimulus of feeding (O'Shea, et al., 1997, Endocrinology, 138:196-202). To ascertain whether C-75 might alter NPY regulation in the hypothalamus, the expression of NPY was examined by northern blot analysis of hypothalamic tissue microdissected from the brains of the fed, fasted and C-75-treated mice shown in FIG. 2A.
# The hypothalamic region was microdissected from the brains of mice in FIG. 2A and total RNA was isolated. RNA was subjected to northern blot analysis using random primed probes (Feinberg, et al., 1983, Anal. Biochem., 132:6) for NPY and S26 (as a loading control). Tissue was extracted for total RNA as described, P. Chomczynski and N. Sacchi, Anal. Biochem. 162, 156(1987). 15 μg of total RNA was subjected to Northern blot analysis as described, T. Brown, K. Mackey, in Current Protocols in Molecular Biology, F. Ausubel, et al., Eds. (John Wiley and Sons, New York, 1997) pp. 4.9.1-4.9.16.
# [2] = Body weight after a single IP injection; assay type: in vivo, BALB/c mice
# Experimental: The effect of C-75 treatment on feeding behavior and body weight in mice is both rapid and dramatic. A single treatment leads to the loss of as much as 20% of total body weight within 24 hours (FIG. 1.2A). This weight loss occurs in a dose dependent manner and persists for a duration that increases with dose. In all cases, treated animals recover lost body weight after the effect of the drug has dissipated, arguing against induction of a persistent wasting.
# Male BALB/c mice 19-22 g were weighed, treated by a single intra peritoneal (I.P.) injection and housed in metabolic cages. Body weight (FIG. 1.2A) and food intake (FIG. 1.2B) were monitored at 24 hour intervals.
# [3] = tested on: liver and white adipose tissue; assay: Histology of liver and white adipose tissue of treated ob/ob mice; assay type: in vivo
# Source text: C-75 treatment not only led to weight loss, but also corrected many of the pathological consequences that result from the extreme obesity of ob/ob mice. Liver samples from vehicle and C-75 treated mice (from FIG. 3B) were fixed in formalin and paraffin embedded. Tissue sections (4 μm) were stained with hematoxylin and eosin. […] The observation that C-75 acts through a leptin independent mechanism is particularly promising in that the majority of obese individuals appear to be relatively resistant to leptin's effects (Caro, et al., 1996, Lancet, 348:159).
# feeding behavior = assay: Feeding interval in 24 hour fasted mice; assay type: in vivo; conditions: 30 mg/kg IP, within 20 minutes of treatment
# Experimental: Mice were fasted for 24 hours to induce voracious feeding. Initial feeding interval (time in seconds between food presentation and initiation of feeding) was measured in naive mice (pretreat). Mice were then treated by I.P. injection of 30 mg/kg C-75 or RPMI vehicle and feeding interval determined at 20, 40 and 60 minutes post-injection. Observation was terminated if no feeding was initiated within 1000 see (experimental cut off). Times represent mean +/−SEM, (n=4).
# Prior to treatment, all animals fed ravenously within 3 minutes of being offered food.
# [4] = Weight loss in mice lacking IL-1r and TNFαr1a receptors; conditions: mouse, in vivo
# Source text: Alternatively, the signal from the FAS target tissue to the hypothalamus may be mediated by a humoral signal. This FAS-associated signal appears to be independent of the systemic release of the known feeding inhibitory hormones leptin and insulin, and the pro-inflammatory cytokines tumor necrosis factor-α and interleukin-1β. Nor is it reversed by administration of dexamethasone, a synthetic glucocorticoid.
# serum glucose = assay: Serum glucose in ob/ob mice; assay type: in vivo; conditions: 2 weeks treatment, n=3
# Experimental: In addition to obesity, ob/ob mice also develop overt diabetes with significant elevation of blood glucose. C-75 corrected the hyperglycemia observed in vehicle treated mice with a nearly 3-fold reduction in mean serum glucose (FIG. 4A). Male ob/ob mice (n=3) were treated with C-75 or vehicle for 2 weeks (FIGS. 3B and C) and compared with age matched, untreated c57BL/6j mice (+/+). […] The normalization of blood glucose occurred from the profound weight loss in the ob/ob mice as acute treatment of normal mice with C-75 had no effect on serum other than that resulting from inhibition of feeding (FIG. 4B). Male BALB/c mice (n=7) were fasted for 24 hours or injected IP with 30 mg/kg C-75 or RPMI vehicle and allowed free access to food for 24 hours. In both cases, serum was collected at death and assayed for glucose: RefLab™ GLU (Medical Analysis Systems, Inc., Camarillo, Calif.). […] Both panels are representative of 2 experiments.
# hepatic malonyl-CoA = assay: Hepatic malonyl-CoA level after dextrose gavage and IP C-75; assay type: in vivo, BALB/c mice; conditions: 20 mg/kg IP, one hour post-treatment, after 2 g/kg dextrose
# Experimental: Male BALB/c mice (4 per group) were given 2 g/kg dextrose by oral gavage. After 15 min mice were injected IP with 20 mg/kg C-75 or RPMI vehicle. One hour post-treatment, livers were rapidly removed, frozen and pulverized in liquid nitrogen, HC104 extracted and assayed for malonyl-CoA [J. D. McGarry, M. J. Stark, D. W. Foster., J. Biol. Chem 253, 8291 (1978)]. Intraperitoneal injection of mice with C-75 leads to a 95% reduction in ^14C-acetate incorporation into fatty acids and to a 110% increase in the level of hepatic malonyl-CoA, the principal substrate of FAS. Experiments described in panels B and C were repeated twice.
# [5] = Body weight of ob/ob mice over two week treatment; assay type: in vivo; conditions: 22 mg/kg IP every third day, two weeks
# Source text: The magnitude of this effect is readily evident by inspection of representative C-75 and control treated ob/ob mice.
structure (smiles),measurement,setting,value
C=C1C(=O)OC(CCCCCCCC)C1C(=O)O (centres unmarked) [C-75],level of hypothalamic NPY mRNA,[1],even lower than that of the fed controls
same,loss of total body weight after a single treatment,"[2]; within 24 hours, single IP treatment, 7.5-30 mg/kg",≤ 20%
same,loss of total body weight,"[2]; within a 24 hour period, BALB/c mice",10-20%
same,liver histology (hepatomegaly and fatty liver),[3]; 14 days treatment,marked reduction in the hepatomegaly and fatty liver
same,mean adipocyte size in white adipose tissue,[3]; 14 days treatment (not shown),dramatic reduction in mean adipocyte size
same,histological abnormality from chronic treatment,[3]; liver and white adipose tissue,no evidence of histological abnormality
same,feeding initiation in fasted mice,feeding behavior,lost all interest in feeding
same,weight loss in mice lacking IL-1r and TNFαr1a receptors,[4],weight loss was observed
same,reduction in mean serum glucose,serum glucose,~3 fold
same,increase in the level of hepatic malonyl-CoA,hepatic malonyl-CoA,110%
same,body weight of ob/ob mice,[5],substantial reduction in the body weight
